13 molecules from US8049006B2, “7-membered ring compound and method of production and pharmaceutical application thereof” (Daiichi Sankyo Company, Limited, priority 2006, dated 2011) can be followed below.

The structures appear in SMILES notation.

Tested on in one data set: not given
Details: not given
The molecule `COc1ccc(F)cc1/C=C1\CNC(=O)CN(S(=O)(=O)c2ccc(Cl)s2)C1=O` registered a melting point of 150 to 153 °C.
For `COC(=O)C[C@@H]1C(=O)NC[C@H](Cc2cc(F)ccc2OC)C(=O)N1S(=O)(=O)c1ccc(Cl)cc1`, the melting point fell in the range of 73 to 76 °C.
In turn, `CC[C@@H](NC(=O)N1CC(=O)NCC(Cc2cc(Cl)ccc2OC)C1=O)C(=O)Nc1nnn[nH]1` (stereo partly drawn) gave a melting point of 141 to 142 °C.
The same measure, in the same setting: the result for `N#Cc1ccc(S(=O)(=O)N2CC(=O)NC/C(=C\c3ccccc3)C2=O)cc1` reads 239 °C (dec.); that for `CC[C@@H](NC(=O)N1CC(=O)NC[C@@H](Cc2cc(Cl)ccc2OC)C1=O)c1cccc(C(=O)O)c1` [Compound 91, 3-[(1R)-1-({[(6R)-6-(5-chloro-2-methoxybenzyl)-3,7-dioxo-1,4-diazepan-1-yl]carbonyl}amino)propyl]benzoic Acid], 121 to 123 °C.
On to `O=C(CN1CC(Cc2ccccc2)C(=O)N(S(=O)(=O)c2ccc(Cl)cc2)CC1=O)NCc1ccccc1` (stereo not drawn), for which the melting point is 187 to 190 °C.
For `CC[C@@H](NC(=O)N1CC(=O)NC[C@@H](Cc2cc(Cl)ccc2OC)C1=O)c1cccc(C(=O)[O-])c1.[Na+]`, the melting point lay in the range of 161 to 163 °C.
For `COC(=O)COc1ccc(Cl)cc1CC1CNC(=O)CN(S(=O)(=O)c2ccc(Cl)cc2)C1=O` (stereo not drawn), the melting point lay within 138 to 140 °C.
Same read-out and setting: the result for `Cc1cccc(CC2CNC(=O)CN(S(=O)(=O)c3ccc(Cl)cc3)C2=O)c1` (stereo not drawn) reads 64 to 66 °C.
Take `COc1ccc(Cl)cc1CC1CNC(=O)CN(C(=O)Nc2cccc(NC(C)=O)c2)C1=O` (stereo not drawn): the melting point fell in the range of 130 to 131 °C.
`COc1ccc(Cl)cc1CC1CNC(=O)CN(S(=O)(=O)c2ccc(Cl)cc2)C1=O` (stereo not drawn) [Compound 29, 6-(5-chloro-2-methoxybenzyl)-4-[(4-chlorophenyl)sulfonyl]-1,4-diazepan-2,5-dione]: the melting point lay in the range of 110 to 112 °C.
Consider `CC[C@@H](NC(=O)N1CC(=O)NCC(Cc2cc(Cl)ccc2OC)C1=O)C(=O)Nc1ccc(C)c(C(=O)O)c1` (stereo partly drawn), for which the melting point lay within 132 to 134 °C.

Another data set deals with C3H/HeN mice. The note with it: 10 mg/kg orally once a day; 24 hours after DNFB application at fifth week; female C3H/HeN mice.
For the molecule `CC[C@@H](NC(=O)N1CC(=O)NC[C@@H](Cc2cc(Cl)ccc2OC)C1=O)c1cccc(C(=O)O)c1` [Compound 91, 3-[(1R)-1-({[(6R)-6-(5-chloro-2-methoxybenzyl)-3,7-dioxo-1,4-diazepan-1-yl]carbonyl}amino)propyl]benzoic Acid], the “inhibition rate of the skin reaction” value is reported as 26.1%.
As for `COc1ccc(Cl)cc1CC1CNC(=O)CN(S(=O)(=O)c2ccc(Cl)cc2)C1=O` (stereo not drawn) [Compound 29, 6-(5-chloro-2-methoxybenzyl)-4-[(4-chlorophenyl)sulfonyl]-1,4-diazepan-2,5-dione], the “inhibition rate of the skin reaction” value amounted to 25.1%.
As to `COc1ccc(Cl)cc1CC1CNC(=O)CN(S(=O)(=O)c2ccc(Cl)c(N)c2)C1=O.Cl` (stereo not drawn) [Compound 90, 4-[(3-amino-4-chlorophenyl)sulfonyl]-6-(5-chloro-2-methoxybenzyl)-1,4-diazepan-2,5-dione Hydrochloride], the “inhibition rate of the skin reaction” value worked out at 31.0%.
